Consider 11 compounds from ChEMBL document CHEMBL2424593, “New scaffolds of natural origin as Integrase-LEDGF/p75 interaction inhibitors: virtual screening and activity assays” (Eur J Med Chem, 2013).

Series [1] can be described thus: Inhibition of HIV1 His6-tagged integrase-LEDGF/p75 (unknown origin) interaction incubated for 30 mins followed by LEDGF/p75 addition measured after 4 hrs.
Series [2] can be described thus: Inhibition of HIV1 His6-tagged integrase-LEDGF/p75 (unknown origin) interaction at 100 uM incubated for 30 mins followed by LEDGF/p75 addition measured after 4 hrs relative to control.
Series [3] concerns Human immunodeficiency virus. As to the kind of experiment: Antiviral activity against HIV 3B infected in human MT4 cells assessed as protection against virus-induced cytopathic effect at 100 uM by MTT assay. Type of series: functional, organism-based.
A further series concerns MT4. As to the kind of experiment: Cytotoxicity against human MT4 cells at 125 uM by MTT assay. Type of series: cell-based. The note with it: mt4, 125 µM.

The source made the active and inactive calls. No cut-off for these calls is given here.

`O=C(O)Cc1c(-c2ccccc2)c2cc(Cl)ccc2[nH]c1=O` yielded a concentration for half-maximal inhibition (IC50) in series [1] of 12.2 µM.

Turning to `CCc1cc(C(=O)Cc2ccc3c(c2)OCCO3)c(O)cc1OCC(=O)O`, the IC50 in series [1] was above 100 µM. Also, the inhibition in series [2] was 50%.

Take `Cc1ccc2[nH]c(=O)c(CC(=O)O)c(-c3ccccc3)c2c1`: the IC50 in series [1] came to 52.5 µM. This compound gave an inhibition in series [2] of 61%.

With `COc1ccc2nc(C)cc(Nc3cccc(C(=O)O)c3)c2c1`, the inhibition in series [2] was determined as 30%.

`Cc1cn2c3c(=O)n(CCc4ccccc4)c(=O)n(C)c3nc2n1CC(=O)O` displayed an inhibition in series [2] of 52%.

With `Cn1c(=O)c(CC(=O)O)c(O)c2ccccc21`, the inhibition entry in series [2] is “inactive”.

In series [2], `O=C(O)c1nn(Cc2ccc(Cl)cc2Cl)c2ccccc12` gave an inhibition of 40%.

In the case of `Cc1c(OC(C(=O)O)c2ccccc2)ccc2c(-c3ccccc3)cc(=O)oc12` (racemic), in series [1], it took 37.2 µM to reach half-maximal inhibition (IC50). Moreover, the outcome in series [3] was inactive. The inhibition in series [2] amounted to 87%.

`CCCC(C(=O)O)c1cnc2ccc(Cl)cc2c1-c1ccccc1` (racemic) showed an IC50 in series [1] of 1.37 µM.

In series [1], `COc1ccc(/C=C2/SC(=S)N(C(C(=O)O)C(C)C)C2=O)cc1` (racemic) had an IC50 of 41.3 µM. Also, the result in series [3] was inactive. For the same compound, the Activity result in the series on MT4 is recorded as “Non-toxic”.

As for `O=C(O)c1cc(N(Cc2ccccc2O)Cc2ccccc2O)ccc1O` [LAVENDUSTIN B], the half-inhibitory concentration (IC50) in series [1] was 94.1 µM. This compound yielded an inhibition in series [2] of 58%.
